Test results as given in patent US20070099822A1, “Regulation of tissue mineralization and phosphate metabolism by asarm peptides” (priority 2003, published 2007).
Several values for one entry are separate records, joined by “and”; a condition that tells them apart may be missing. Equal values may be shown once. Entries after “also recorded” stand apart in the source; their conditions may differ.

Key:
Type in all cases: in vivo
mice [1] = assay: Example III: subcutaneous injection once a day for 12 days, mineralization and phosphate handling; conditions: ASARM peptide 2 mg/kg/day; for Phosphate Excretion Index (PEI) / increase in urinary calcium levels compared to the control / inhibition in tooth mineralization / inhibition of mineralization in femur / inhibition of mineralization in tibia/femur / mineralization of calvariae and long bones / renal phosphorous clearance vs vehicle / serum calcium vs control / serum phosphate / tubular reabsorption of phosphate vs vehicle / urinary phosphate excreted in a 24-hour period vs control / urine creatinine / urine phosphate / Fractional Excretion of Phosphate (FEP) vs vehicle / inhibition of mineralization of calvariae: etidronate 10 mg/kg/day; for Fractional Excretion of Phosphate (FEP) vs vehicle / inhibition of mineralization of calvariae: s.c. once a day 12 days; for inhibition of mineralization of calvariae: calcein
Method: (§1) FIGS. 14a and 14b show the Fractional Excretion of Phosphate (FEP) in two different experiments. In the experiment shown in FIG. 14a, each of three groups of mice was treated with one injection per day, over two weeks, of either: (a) vehicle alone, (b) etidronate (10 mg/kg/day), or (c) ASARM peptide (2 mg/kg/day). In the experiment show in FIG. 14b, each of four groups of mice was treated with two injections per day, over three weeks, of either: (a) vehicle alone, (b) etidronate (60 mg/kg/day), (c) ASARM (1.34 mg/kg/day; “ASARM-low”), or (d) ASARM (4.00 mg/kg/day; “ASARM-high”).
Three groups of 5 mice each received a subcutaneous injection once a day for 12 days. […] Calcein was given at 20 mg/kg/day on days 3, 5, 8, and 10 to allow visualization. The first group of mice were given an injection of vehicle only. The second group of mice were given etidronate at 10 mg/kg/day. The third group of mice were given ASARM peptide at 2 mg/kg/day.

male ICR Swiss mice = assay: Example VI: subcutaneous PO4-ASARM-peptide or etidronate, calcein fluorescence and Sanderson osteoid staining
Method: Subcutaneous administration of PO4-ASARM-peptide, etidronate (EHDP), and calcein. Three separate groups of male ICR Swiss mice (4-5 weeks) were subcutaneously injected once a day (9:00AM), for 12 days except for days 6 and 7 with 50 μL solutions of either (1) Eitidronate (EHDP) (10 mg/kg/day); (2) PO4-ASARM-peptide (2 mg/kg/day); or (3) vehicle consisting of 5 mM HEPES pH 7.4/150 mM NaCL/0.1% BSA. The synthetic PO4-ASARM-peptide was dissolved in vehicle (1.0 mg/mL). Etidronate was first dissolved in 150 mM NaCl and then buffered to pH 7.5 with 1M NaOH to give a 5 mg/mL solution. The 10 mg/kg/day doses of etidronate have previously been reported to inhibit mineralization in rats and were used as positive controls (Trechsel, et al., Am J Physiol 232(3):E298-305, 1977; Bonjour, et al., Am J Physiol 229(2):402-8, 1975). All three groups were subcutaneously injected with calcein (20 mg/kg/day) on days 3, 5, […]. The degree of calcein fluorescence and/or fluorescence-quenching is an indicator of mineralization status (see next section). The calcein injections when given were administered 1 h after the daily injections of PO4-ASARM-peptide, EHDP or vehicle. Animals were then terminated humanely and calvariae plus femurs/tibia were fixed in 70% ethanol (non-decalcified). After fluorescence imaging (see FIG. 35) calvariae were processed in plastic and stained with Sanderson's stain (see below). Five animals per group were used for statistical analysis of fluorescence quenching and histological Sanderson staining.
Calcein fluorescence in mice calvariae, hind-limbs & fluor-imager analysis of mineralization. A Bio-Rad (Hercules, Calif.) FluorImager^max fluorescent imager was used to simultaneously image all the samples from each of the 3 groups (15 animals; five animals per group). This consisted of 10 tibia/femurs and 5 calvariae per group. Samples were placed on top of the FluorImager plate contained within a light-tight box. Ultra-violet light was used to generate calcein-mediated epi-fluorescence and the fluorescent-image was captured on a −40° C., peltier-cooled, 1,340×1040 pixel CCD resolution, CCD digital-camera. Quantitation of fluorescence was carried out using Quantity-1 (Bio-Rad, Hercules, Calif.) fluorescence-software. Pixel saturation was prevented by internal software calibration and exposure adjustment. All fluorescence readings were thus accurately quantitative and non-saturating. Photo-micrographic UV fluorescent analysis of calvarial cross sections embedded in plastic and mounted as slides (<100 micrometer sections) was also undertaken and a description of the fixation and processing is given in the next section.
Sanderson-staining and fluorescence detection of calvarial osteoid & mineralized bone. Staining of non-decalcified calvarial sections was performed using the method described by Sanderson and Bachus (Staining technique to differentiate mineralized and demineralized bone in ground sections, J Histotechnol 20(2): 119-122, 1997). This technique provides differential staining between unmineralized osteoid and mineralized bone. Prior to staining, calvariae were dissected and attached tissue removed. Calvariae were then placed in 70% ethanol for further fixation as described by Sanderson and Bachus (supra). After fixing and processing undecalcified calvariae were embedded in plastic (LR-white acrylic resin (London Resin Co., Reading, England)) as previously described (Garrett, et al., Selective inhibitors of the osteoblast proteasome stimulate bone formation in vivo and in vitro, J Clin Invest 111(11):1771-1782, 2003). Plastic embedded sections were ground to <100 micrometers using a specialized grinding-pestle as described by Donath and Breuner (A method for the study of undecalcified bones and teeth with attached soft tissues. The Sage-Schliff (sawing and grinding) technique, J Oral Pathol 11(4):318-26, 1982). […]

mice [2] = assay: Example II: subcutaneous injection twice a day for three weeks, serum and urine; conditions: for serum phosphate: three weeks, vehicle 9.62; for serum calcium vs vehicle / serum alkaline phosphatase vs vehicle: etidronate 60 mg/kg/day; for serum alkaline phosphatase vs vehicle: ASARM 1.3 and 4 mg/kg/day (both groups); for % FEP vs control: two injections per day over three weeks, ASARM 1.34 and 4.00 mg/kg/day
Method: Four groups of 7 mice were injected subcutaneously twice a day for three weeks. The first group received vehicle only as a control, the second group received etidronate at 60 mg/kg/day, the third group received ASARM peptide at 1.3 mg/kg/day (“low ASARM”), and the fourth group received ASARM peptide at 4 mg/kg/day (“high ASARM”). Calcein/tetracycline was administered to the animals 4 days and 2 days before the end of the protocol for visualization purposes.
as §1

[3] = PO4-ASARM-peptide 2 mg/kg/day, etidronate 10 mg/kg/day

Molecule	increase in urinary calcium levels compared to the control (mice [1]) [%]	inhibition in tooth mineralization (mice [1]) [%]	inhibition of mineralization in femur (mice [1]) [%]	inhibition of mineralization in tibia/femur (mice [1]) [%]	mineralization of calvariae and long bones (mice [1])	serum calcium vs control (mice [1])	tubular reabsorption of phosphate vs vehicle (mice [1])	urinary phosphate excreted in a 24-hour period vs control (mice [1])	urine creatinine (mice [1])	urine phosphate (mice [1])	Fractional Excretion of Phosphate (FEP) vs vehicle (mice [1])	inhibition of mineralization of calvariae (mice [1]) [%]	serum calcium vs vehicle (mice [2]; ASARM 1.3 and 4 mg/kg/day)	serum alkaline phosphatase vs vehicle (mice [2])	also measured
CC(O)(P(=O)(O)O)P(=O)(O)O [etidronate, reference compound]	75.9	53.2	15.8	19.2	greatly inhibited	slightly higher level	higher	far less phosphate	significant elevation; also recorded: significantly elevated	induced hypophosphaturia	significantly lower	48.4	lower serum calcium levels	significantly higher levels	Phosphate Excretion Index (PEI) (mice [1]): lower PEI; renal phosphorous clearance vs vehicle (mice [1]): significantly less phosphate clearance; serum phosphate (mice [1]): induce hyperphosphatemia; increase of osteoid layer thickness relative to vehicle (male ICR Swiss mice; [3]): 2.35 fold; percentage quenching of calvarial calcein fluorescence relative to vehicle (male ICR Swiss mice; [3]): 48% and 48.4%; calvariae calcein fluorescence (male ICR Swiss mice; PO4-ASARM-peptide 2 mg/kg/day, etidronate 10 mg/kg/day, s.c. 12 days, vehicle 1100.5): 417.7 fluorescent intensity units; calvarial osteoid relative thickness (Sanderson staining) (male ICR Swiss mice; PO4-ASARM-peptide 2 mg/kg/day, etidronate 10 mg/kg/day, vehicle 2.3): 5.4; lamellar calcein fluorescent layers in calvarial cross-sections (male ICR Swiss mice; four layers visible in vehicle group): complete absence; serum phosphate (mice [2]; etidronate 60 mg/kg/day s.c. twice a day): 10.04 mg/dL
ASARM peptide: ASARM peptide injected subcutaneously in Examples II and III; sequence and phosphorylation not stated; data resemble PO4-ASARM-peptide of Example VI (RDDSSESSDSGSSSESDGD)	56.3	35.3	44.6	24.4	mineralization was inhibited	did not show a significantly elevated level	higher	far less phosphate	significant elevation; also recorded: significantly elevated	induced hypophosphaturia	significantly lower; also recorded: decreased	62.0	lower serum calcium levels	levels similar to that of the vehicle; also recorded: levels similar to that of the control	serum alkaline phosphatase vs etidronate or vehicle groups (mice [1]): lower levels; Phosphate Excretion Index (PEI) (mice [1]; listed as ASARM): much lower PEI; mineralization of calvariae and long bones (mice [1]; listed as ASARM): greatly inhibited; renal phosphorous clearance vs vehicle (mice [1]; listed as ASARM): significantly less phosphate clearance; serum phosphate (mice [1]; listed as ASARM): induced hyperphosphatemia; urinary phosphate excreted in a 24-hour period vs control (mice [1]; listed as ASARM): far less; urine phosphate (mice [1]; listed as ASARM): hypophosphaturia; % FEP vs control (mice [1]; one injection per day over two weeks): significantly lower % FEP; also recorded: decrease in FEP; urinary phosphate excretion over 24 hours vs etidronate and control groups (mice [2]; ASARM 1.3 and 4 mg/kg/day): significantly higher; serum phosphate (mice [2]; ASARM high, 4 mg/kg/day s.c. twice a day): 10.01 mg/dL; serum phosphate (mice [2]; ASARM low, 1.3 mg/kg/day s.c. twice a day): 10.60 mg/dL; % FEP vs control (mice [2]): increase in FEP; % FEP vs control (mice [2]; listed as ASARM): much higher % FEP levels
